# Molecular target: T1, porcine liver COMT (Sus scrofa, UniProt Q99028)
# T1 sequence (Q99028 1-186): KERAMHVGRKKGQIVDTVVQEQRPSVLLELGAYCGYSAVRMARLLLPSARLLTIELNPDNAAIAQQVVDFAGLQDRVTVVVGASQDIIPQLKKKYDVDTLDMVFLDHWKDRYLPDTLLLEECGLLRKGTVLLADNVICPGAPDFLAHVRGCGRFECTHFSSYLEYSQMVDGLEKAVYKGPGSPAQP
# Test: Catechol O-methyltransferase activity assay
# Format: biochemical
# Details: 1 mM sinefungin; 1 mM SAM; 2 h at 37 °C
smiles,measurement,value
"Nc1ncnc2c1ncn2[C@@H]1O[C@H](C[C@@H](N)CC[C@H](N)C(=O)O)[C@@H](O)[C@H]1O [singfungin, sinefungin]",inhibition of COMT activity,significantly inhibited

# From publication PMC4688878 (Chemical Research in Toxicology, 2015)
